# Assay results published in ChEMBL document CHEMBL1201862, “PubChem BioAssay data set” (2004).
# The source made the active and inactive calls.
# What was measured:
# [1] = HepG2 cell cytotoxicity, dose response, cytotoxicity control for Shn3 inhibitor project, CellTiter-Glo, cherry-picked (AID 624134); assay type: functional, cell-based
# [2] = control 3'UTR Renilla luciferase suppression, dose response, counter-screen for Shn3 inhibitor project, cell-based, Clone20-Shn3RL, cherry-picked (AID 624133); assay type: functional
# INS1 = experiment: beta cell apoptosis inhibitors, cytokine rescue, dose response, luminescence, retest (AID 449756); assay type: functional, cell-based; conditions: Rattus norvegicus;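 further: cell death triggered by IL-1 beta plus TNF-alpha plus IFN-gamma mixture; protective hits raise ATP signal compared with cytokine alone wells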
# cells = assay type: functional
# [3] = Shn3 3'UTR reporter inhibitors, dose response, cell-based, Clone20 osteoblasts, firefly luciferase, cherry-picked (AID 624132); assay type: functional;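 further: firefly luciferase luminescence from reporter carrying the Shn3 3'UTR in osteoblasts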
# [4] = Vero E6 cell cytotoxicity, dose response, cytotoxicity control for non-replicating M. tuberculosis project, secondary assay (AID 492998); assay type: functional, VeroE6; conditions: Vero C1008
# [5] = StAR promoter reporter inhibition counter-screen, dose response, counter-screen for LRH-1 inverse agonist project, cell-based, luminescence, luciferase reporter (AID 651969); assay type: functional
# [6] = THP-1 cell cytotoxicity, dose response, cytotoxicity control for non-replicating M. tuberculosis project (AID 489025); assay type: functional
# [7] = biological target: Nuclear receptor subfamily 5 group A member 2 (Homo sapiens, UniProt O00482); assay type: functional, cell-based;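 further: HEK293T cells transfected with LRH-1 and a StAR promoter luciferase reporter; potency for inhibitors that lower LRH-1 driven reporter light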
# Nuclear receptor subfamily 5 group A member 2, sequence (O00482 whole entry): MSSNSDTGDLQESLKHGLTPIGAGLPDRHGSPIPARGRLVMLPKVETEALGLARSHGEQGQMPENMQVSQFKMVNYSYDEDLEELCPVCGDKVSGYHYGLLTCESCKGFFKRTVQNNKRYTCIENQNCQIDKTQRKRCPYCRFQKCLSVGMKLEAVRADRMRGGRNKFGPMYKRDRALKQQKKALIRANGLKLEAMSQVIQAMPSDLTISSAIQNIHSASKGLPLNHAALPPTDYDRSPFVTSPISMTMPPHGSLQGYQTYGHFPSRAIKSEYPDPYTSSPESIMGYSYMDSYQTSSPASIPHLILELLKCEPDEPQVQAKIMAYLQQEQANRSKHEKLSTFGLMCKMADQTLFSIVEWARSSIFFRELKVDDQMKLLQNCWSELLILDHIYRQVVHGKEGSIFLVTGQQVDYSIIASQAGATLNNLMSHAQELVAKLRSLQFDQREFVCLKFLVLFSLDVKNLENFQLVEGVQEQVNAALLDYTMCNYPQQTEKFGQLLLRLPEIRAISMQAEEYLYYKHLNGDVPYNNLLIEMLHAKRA
# Steroidogenic factor 1 = Steroidogenic factor 1 (Homo sapiens, UniProt Q13285); experiment: Counterscreen for inverse agonists of the liver receptor homolog-1 (LRH-1; NR5A2): Luminescence-based cell-based high throughput dose response assay to identify inverse agonists of the Steroidogenic Factor 1 Nuclear Receptor (SF1; NR5A1).; assay type: functional
# Steroidogenic factor 1, sequence (Q13285 whole entry): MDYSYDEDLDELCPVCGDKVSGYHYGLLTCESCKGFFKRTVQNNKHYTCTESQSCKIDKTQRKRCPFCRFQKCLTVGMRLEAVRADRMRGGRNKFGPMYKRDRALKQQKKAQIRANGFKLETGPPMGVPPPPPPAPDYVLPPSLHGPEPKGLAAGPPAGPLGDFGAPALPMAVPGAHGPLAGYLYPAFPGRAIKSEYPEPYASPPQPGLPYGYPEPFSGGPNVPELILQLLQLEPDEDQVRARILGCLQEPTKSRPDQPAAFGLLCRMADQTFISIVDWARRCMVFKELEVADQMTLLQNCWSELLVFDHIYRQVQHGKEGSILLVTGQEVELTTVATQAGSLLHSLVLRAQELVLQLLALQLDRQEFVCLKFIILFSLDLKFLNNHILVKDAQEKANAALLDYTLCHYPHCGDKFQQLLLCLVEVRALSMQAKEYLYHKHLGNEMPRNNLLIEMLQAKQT
# Streptokinase A = biological target: T1, Streptokinase A (Streptococcus pyogenes serotype M1, UniProt P10520); experiment: S. pyogenes streptokinase expression inhibitors, potency, dose response, plasminogen activation absorbance, OD405 (AID 1914); assay type: functional, Streptococcus pyogenes M1 GAS;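 further: secreted streptokinase activity via plasminogen activation per viability signal from cell pellet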
# T1 sequence (P10520 whole entry): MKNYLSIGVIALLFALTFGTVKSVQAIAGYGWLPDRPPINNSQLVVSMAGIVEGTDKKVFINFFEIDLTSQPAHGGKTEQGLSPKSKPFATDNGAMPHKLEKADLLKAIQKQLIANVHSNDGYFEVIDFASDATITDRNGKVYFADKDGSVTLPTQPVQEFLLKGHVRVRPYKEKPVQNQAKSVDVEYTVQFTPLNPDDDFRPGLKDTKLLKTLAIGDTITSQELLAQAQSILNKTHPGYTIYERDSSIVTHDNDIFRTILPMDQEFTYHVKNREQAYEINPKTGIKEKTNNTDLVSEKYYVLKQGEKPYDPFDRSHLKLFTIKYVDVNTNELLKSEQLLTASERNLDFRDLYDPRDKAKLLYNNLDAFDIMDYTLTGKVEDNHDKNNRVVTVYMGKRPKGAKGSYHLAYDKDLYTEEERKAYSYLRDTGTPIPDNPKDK
# [8] = test system: Streptococcus sp. 'group A'; experiment: growth inhibition of control SK(-) GAS strain, dose response, counter-screen for streptokinase expression inhibitor project, luminescence, kanamycin, BacTiterGlo, confirmation (AID 1900); assay type: functional, organism-based
# [9] = biological target: Heat shock protein HSP 90-alpha (Homo sapiens, UniProt P07900); assay type: functional, organism-based
# Mu-type opioid receptor = Mu-type opioid receptor (Homo sapiens, UniProt P35372); assay type: functional, cell-based;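 further: U2OS cells with beta-arrestin recruitment to OPRM1 by beta-gal complementation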
# Mu-type opioid receptor, sequence (P35372 whole entry): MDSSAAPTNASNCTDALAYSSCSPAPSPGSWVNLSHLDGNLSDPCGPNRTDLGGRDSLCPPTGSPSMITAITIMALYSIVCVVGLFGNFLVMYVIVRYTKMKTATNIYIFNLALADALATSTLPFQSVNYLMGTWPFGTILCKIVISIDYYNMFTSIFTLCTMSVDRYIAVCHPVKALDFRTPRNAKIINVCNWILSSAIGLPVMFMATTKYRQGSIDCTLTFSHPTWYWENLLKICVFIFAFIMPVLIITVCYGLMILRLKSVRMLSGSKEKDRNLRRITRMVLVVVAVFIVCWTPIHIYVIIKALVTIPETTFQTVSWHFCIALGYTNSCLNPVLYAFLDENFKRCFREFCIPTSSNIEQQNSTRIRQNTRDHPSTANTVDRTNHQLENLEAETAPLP
# [10] = biological target: 5-hydroxytryptamine receptor 2A (Mus musculus, UniProt P35363); assay type: functional, cell-based;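 further: CHO-K1 cells with tagged receptor and beta-arrestin; agonist potency measured as compound-induced activation of the receptor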
# 5-hydroxytryptamine receptor 2A, sequence (P35363 whole entry): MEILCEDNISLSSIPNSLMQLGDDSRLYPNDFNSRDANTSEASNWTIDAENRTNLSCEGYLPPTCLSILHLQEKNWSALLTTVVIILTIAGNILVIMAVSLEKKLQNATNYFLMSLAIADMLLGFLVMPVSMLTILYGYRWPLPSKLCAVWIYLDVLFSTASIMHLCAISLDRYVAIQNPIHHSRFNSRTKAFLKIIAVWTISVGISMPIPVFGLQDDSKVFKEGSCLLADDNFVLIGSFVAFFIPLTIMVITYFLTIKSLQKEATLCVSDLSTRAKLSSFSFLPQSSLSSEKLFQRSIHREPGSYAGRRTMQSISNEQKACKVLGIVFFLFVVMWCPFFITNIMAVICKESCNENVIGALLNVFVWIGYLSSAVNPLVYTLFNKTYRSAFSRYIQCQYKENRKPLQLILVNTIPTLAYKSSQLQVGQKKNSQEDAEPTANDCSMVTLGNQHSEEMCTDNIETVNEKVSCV
# Streptococcus = experiment: Group A Streptococcus viability loss, dose response, counter-screen for streptokinase expression inhibitor project, luminescence, BacTiterGlo (AID 1915); assay type: functional, organism-based;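 further: potency for reduction of bacterial viability or growth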
# [11] = MDA-MB-231 cell growth inhibition, dose response, cytotoxicity control for RAD54 inhibitor project, CellTiter-Glo luminescence, cherry-pick (AID 651692); assay type: functional, cell-based
# [12] = biological target: T2, DNA repair and recombination protein RAD54-like (Homo sapiens, UniProt Q92698); experiment: inhibitors of human RAD54 branch migration, confirmation, biochemical, fluorescence, cherry-picked samples, dose series (AID 651657); assay type: functional
# T2 sequence (Q92698 whole entry): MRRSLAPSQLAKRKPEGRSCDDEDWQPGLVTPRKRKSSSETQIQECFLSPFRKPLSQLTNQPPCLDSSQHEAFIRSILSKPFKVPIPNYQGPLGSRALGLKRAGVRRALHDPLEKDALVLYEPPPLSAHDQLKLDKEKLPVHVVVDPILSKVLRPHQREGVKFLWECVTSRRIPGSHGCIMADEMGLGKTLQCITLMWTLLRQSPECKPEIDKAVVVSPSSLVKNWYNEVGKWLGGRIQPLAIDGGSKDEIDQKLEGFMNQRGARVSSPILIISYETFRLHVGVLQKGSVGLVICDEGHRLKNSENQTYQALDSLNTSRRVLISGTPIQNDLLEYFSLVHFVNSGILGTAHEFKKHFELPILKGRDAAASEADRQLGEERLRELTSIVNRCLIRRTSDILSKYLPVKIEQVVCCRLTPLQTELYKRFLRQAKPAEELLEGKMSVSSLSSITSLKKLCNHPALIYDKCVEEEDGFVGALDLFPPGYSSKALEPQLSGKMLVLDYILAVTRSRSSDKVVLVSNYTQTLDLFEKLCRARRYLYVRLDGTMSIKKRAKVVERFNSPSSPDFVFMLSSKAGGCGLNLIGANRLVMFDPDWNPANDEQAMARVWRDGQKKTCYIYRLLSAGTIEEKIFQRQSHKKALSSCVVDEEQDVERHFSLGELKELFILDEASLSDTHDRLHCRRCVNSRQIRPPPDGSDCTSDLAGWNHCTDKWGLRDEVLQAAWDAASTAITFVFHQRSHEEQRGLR
# [13] = HEp-2 cell cytotoxicity, dose response, cytotoxicity control for RSV inhibitor project, HTS (AID 2410); assay type: functional; conditions: human respiratory syncytial virus
# Beta-galactosidase = Beta-galactosidase (Escherichia coli, UniProt Q8VNN2); experiment: Dose response counterscreen for EBI2 assay utilizing the enzyme, b-galactosidase.; assay type: functional
# Beta-galactosidase, sequence (Q8VNN2 whole entry): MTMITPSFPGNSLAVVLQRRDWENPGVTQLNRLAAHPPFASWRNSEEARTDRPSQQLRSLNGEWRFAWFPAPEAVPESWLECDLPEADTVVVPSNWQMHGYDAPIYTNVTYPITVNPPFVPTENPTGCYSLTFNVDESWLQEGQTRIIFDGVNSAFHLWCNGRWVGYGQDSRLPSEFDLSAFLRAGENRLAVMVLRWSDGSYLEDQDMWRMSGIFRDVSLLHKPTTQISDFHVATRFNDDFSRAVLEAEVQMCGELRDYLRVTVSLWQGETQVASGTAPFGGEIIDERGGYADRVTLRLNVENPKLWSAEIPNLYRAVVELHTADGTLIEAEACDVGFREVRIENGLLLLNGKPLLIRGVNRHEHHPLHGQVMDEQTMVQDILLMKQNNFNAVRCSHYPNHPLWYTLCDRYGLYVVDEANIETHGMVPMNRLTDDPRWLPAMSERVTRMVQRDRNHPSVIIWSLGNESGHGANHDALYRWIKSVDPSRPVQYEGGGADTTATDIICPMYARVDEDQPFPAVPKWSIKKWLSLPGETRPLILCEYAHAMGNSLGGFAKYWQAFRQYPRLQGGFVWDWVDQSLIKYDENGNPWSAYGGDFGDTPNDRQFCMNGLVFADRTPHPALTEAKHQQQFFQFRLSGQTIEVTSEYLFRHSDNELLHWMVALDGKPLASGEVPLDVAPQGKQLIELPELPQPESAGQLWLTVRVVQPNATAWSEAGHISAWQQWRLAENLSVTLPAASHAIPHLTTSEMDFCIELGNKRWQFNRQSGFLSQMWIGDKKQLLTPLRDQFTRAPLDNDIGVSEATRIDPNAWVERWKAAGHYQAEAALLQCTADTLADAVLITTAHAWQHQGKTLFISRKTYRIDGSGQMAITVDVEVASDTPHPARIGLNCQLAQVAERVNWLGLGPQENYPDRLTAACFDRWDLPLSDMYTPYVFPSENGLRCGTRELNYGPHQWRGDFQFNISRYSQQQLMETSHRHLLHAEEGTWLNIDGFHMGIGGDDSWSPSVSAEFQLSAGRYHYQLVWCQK
smiles,measurement,setting,value
O=C(Nc1ccc(Cc2ccncc2)cc1)c1ccc([N+](=O)[O-])o1,AC50,[1],25.4 µM (active)
same,AC50,[2],13.9 µM (active)
same,AC50,INS1,7.72 µM (active)
same,IC50,cells,1.3 µM (active)
same,AC50,[3],2.71 µM (active)
same,CC50,[4],4.99 µM (active)
same,IC50,[5],35.9 µM (inactive)
same,CC50,[6],5.59 µM (active)
same,IC50,[7],35.9 µM (inactive)
same,IC50,Steroidogenic factor 1,0.831 µM (active)
COc1cccc(-c2nc(NC3CCCC3)c3ccccc3n2)c1O,EC50,Streptokinase A,78.1 µM (inconclusive)
same,EC50,[8],5.91 µM (active)
same,AC50,[9],3.8 µM (active)
same,EC50,Mu-type opioid receptor,92.4 µM (inactive)
same,AC50,[3],25 µM (active)
same,EC50,[10],7.62 µM (active)
same,EC50,Streptococcus,> 150 µM (not active)
O=C(OCC(=O)N1CCN(C(=O)COC(=O)c2ccc(O)cc2O)CC1)c1ccc(O)cc1O,IC50,[5],35.9 µM (inactive)
same,IC50,[7],3.12 µM (active)
same,IC50,Steroidogenic factor 1,3.09 µM (active)
CCOC(=O)c1c(C)n(-c2ccc(OC)cc2)c2ccc(O)c(CN(C)C)c12,AC50,[11],34.4 µM (active)
same,AC50,[12],52.6 µM (active)
Cc1ccc(C)c(N2CCN(C(=O)c3cc4c(C)nc5ccccc5c4o3)CC2)c1,CC50,[13],8.05 µM (active)
same,IC50,Beta-galactosidase,> 80 µM (inactive)
